{
  "source": "ChEMBL document CHEMBL1201862",
  "about": "“PubChem BioAssay data set” (2004)",
  "key": {"Vero": {"test_system": "Vero", "assay": "Vero cell cytotoxicity, cytotoxicity control for flavivirus capping enzyme inhibitors (AID 588742)", "assay_type": "functional", "conditions": "Chlorocebus sabaeus"}, "Genome polyprotein": {"target": "Genome polyprotein (dengue virus type 2, UniProt P29990)", "sequence (P29990 2492-3391 limits assumed)": "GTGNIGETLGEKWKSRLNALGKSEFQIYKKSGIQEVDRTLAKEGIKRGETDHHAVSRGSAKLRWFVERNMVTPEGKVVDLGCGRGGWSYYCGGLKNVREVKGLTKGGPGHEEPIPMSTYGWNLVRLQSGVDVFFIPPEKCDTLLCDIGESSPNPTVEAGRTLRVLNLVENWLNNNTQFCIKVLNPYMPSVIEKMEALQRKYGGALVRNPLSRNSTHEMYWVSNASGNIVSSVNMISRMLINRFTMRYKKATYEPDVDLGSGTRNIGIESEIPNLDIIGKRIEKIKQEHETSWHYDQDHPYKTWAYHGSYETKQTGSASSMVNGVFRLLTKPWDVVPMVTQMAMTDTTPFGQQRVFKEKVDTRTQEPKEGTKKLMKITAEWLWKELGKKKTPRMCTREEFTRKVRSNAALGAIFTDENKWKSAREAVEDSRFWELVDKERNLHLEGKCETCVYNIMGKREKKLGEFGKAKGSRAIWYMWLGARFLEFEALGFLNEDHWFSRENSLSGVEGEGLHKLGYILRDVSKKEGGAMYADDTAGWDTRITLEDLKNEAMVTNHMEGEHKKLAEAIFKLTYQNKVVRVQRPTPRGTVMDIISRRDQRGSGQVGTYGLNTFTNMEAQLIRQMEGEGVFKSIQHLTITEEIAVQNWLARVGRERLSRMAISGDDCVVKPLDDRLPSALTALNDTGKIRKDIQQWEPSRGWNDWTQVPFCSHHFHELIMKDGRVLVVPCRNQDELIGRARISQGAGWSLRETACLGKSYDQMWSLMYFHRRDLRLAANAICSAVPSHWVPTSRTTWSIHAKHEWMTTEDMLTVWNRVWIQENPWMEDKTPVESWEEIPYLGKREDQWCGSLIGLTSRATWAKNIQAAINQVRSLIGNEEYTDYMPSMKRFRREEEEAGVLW", "assay": "Dengue-2 NS5 methyltransferase inhibitors, primary screen, biochemical, confirmation dose response (AID 588689)", "assay_type": "functional"}, "Candida albicans [1]": {"test_system": "Candida albicans", "assay": "growth inhibition of resistant C. albicans, dose response, CaCi-8 strain, fluconazole, dry powder, set 4 (AID 488950)", "assay_type": "functional, organism-based"}, "Candida albicans [2]": {"test_system": "Candida albicans", "assay": "fluconazole resistance reversal in C. albicans, dose response, CaCi-2 strain, Alamar Blue, dry powder, set 4 (AID 488943)", "assay_type": "functional, organism-based"}, "Candida albicans [3]": {"test_system": "Candida albicans", "assay": "growth inhibition of azole-resistant C. albicans, dose response, CaCi-8 strain, Alamar Blue, dry powder, set 2 (AID 488909)", "assay_type": "functional, organism-based"}, "[4]": {"target": "Cyclin-dependent kinase 2 (Homo sapiens, UniProt P24941)", "assay": "CDK2 kinase inhibitors, off-target check, dose response, selectivity assay for Dyrk1A inhibitor project, biochemical, cherry-picked samples (AID 602127)"}, "[5]": {"target": "Dual specificity protein kinase CLK1 (Homo sapiens, UniProt P49759)", "sequence (P49759 whole entry)": "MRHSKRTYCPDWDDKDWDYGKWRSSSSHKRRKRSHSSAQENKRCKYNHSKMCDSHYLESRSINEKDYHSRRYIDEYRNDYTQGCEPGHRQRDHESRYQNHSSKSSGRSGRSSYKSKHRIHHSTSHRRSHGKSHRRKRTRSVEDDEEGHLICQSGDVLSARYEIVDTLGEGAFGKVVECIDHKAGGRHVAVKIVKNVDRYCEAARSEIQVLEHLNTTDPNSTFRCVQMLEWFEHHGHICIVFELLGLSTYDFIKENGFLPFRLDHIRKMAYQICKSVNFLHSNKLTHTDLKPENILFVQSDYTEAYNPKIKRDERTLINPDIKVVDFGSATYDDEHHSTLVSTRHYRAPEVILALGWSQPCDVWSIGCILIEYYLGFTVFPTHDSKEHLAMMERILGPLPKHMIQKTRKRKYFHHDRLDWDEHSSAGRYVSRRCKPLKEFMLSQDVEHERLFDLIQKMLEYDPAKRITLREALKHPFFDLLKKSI", "assay": "CLK1 kinase inhibitors, off-target check, dose response, selectivity assay for Dyrk1A inhibitor project, biochemical, cherry-picked samples (AID 588811)"}, "Jurkat": {"test_system": "Jurkat", "assay": "SAR Analysis of small molecule inhibitors of […] specific antigen receptor-induced NF-kB activation in a Jurkat cell line using a luminescence assay - Set 3. [Related pubchem assays (depositor defined):AID435022, AID435025, AID465]", "assay_type": "functional, cell-based", "conditions": "Homo sapiens"}, "HEK293 [6]": {"test_system": "HEK293", "assay": "SAR Analysis of small molecule inhibitors of B-cell specific antigen receptor-induced NF-kB activation in a HEK-293T cell line using a luminescence assay - Set 2. [Related pubchem assays (depositor defined):AID435022, AID435025, AID489021]", "assay_type": "functional, cell-based", "conditions": "Homo sapiens"}, "HEK293 [7]": {"test_system": "HEK293", "assay": "cytotoxicity in HEK293T NF-kB-Luc cells, SAR follow-up, cytotoxicity control for NF-kB activator project, cell-based, resazurin fluorescence (AID 493251)", "assay_type": "functional", "conditions": "Homo sapiens"}},
  "note": "Activity calls are given as the source filed them.",
  "data": [
    {"smiles": "O=C1NC(=S)NC(=O)C1=Cc1c(Cl)cccc1Cl", "values": [
      {"measurement": "CC50", "setting": "Vero", "result": "> 40 µM (active)"},
      {"measurement": "IC50", "setting": "Genome polyprotein", "result": "26.9 µM (active)"}
    ]},
    {"smiles": "O=C(c1ccc(Cl)cc1)N1CCN(c2ncnc3ccccc23)CC1", "values": [
      {"measurement": "AC50", "setting": "Candida albicans [1]", "result": "2.27 µM (active)"},
      {"measurement": "AC50", "setting": "Candida albicans [2]", "result": "1.07 µM (active)"},
      {"measurement": "AC50", "setting": "Candida albicans [3]", "result": "4.12 µM (active)"}
    ]},
    {"smiles": "c1cncc(CNc2nccc(-c3ccc4cn[nH]c4c3)n2)c1", "values": [
      {"measurement": "AC50", "setting": "[4]", "result": "13.8 µM (active)"},
      {"measurement": "AC50", "setting": "[5]", "result": "0.0754 µM (active)"}
    ]},
    {"smiles": "CNC(=O)CCc1nc(-c2ccc(F)cc2)no1", "values": [
      {"measurement": "IC50", "setting": "Jurkat", "result": "> 80 µM (inactive)"},
      {"measurement": "IC50", "setting": "HEK293 [6]", "result": "> 80 µM (inactive)"},
      {"measurement": "IC50", "setting": "HEK293 [7]", "result": "> 80 µM (inactive)"}
    ]}
  ]
}
